According to US9828393B2, “Silylalkyloxyaryl compounds and methods for treating cancer” (THE REGENTS OF THE UNIVERSITY OF COLORADO, a body corporate, priority 2013, dated 2017):

Tests used:
Type in all cases: cell-based, human
M14 = assay: NCI-60 cell line screen (SRB), M14; details: Melanoma; M14; 48 h drug incubation; read-out: GI50
Experimental: (§1) Drug sensitivity data are provided as GI50s (concentrations required to inhibit growth by 50%). The first row of the text file identifies cell lines, separated by tabs. Subsequent rows contain compound number, compound name, and GI50 for each cell line, each separated by a tab. […] For a typical screening experiment, cells are inoculated into 96 well microtiter plates in 100 μL at plating densities ranging from 5,000 to 40,000 cells/well depending on the doubling time of individual cell lines. After cell inoculation, the microtiter plates are incubated at 37° C., 5% CO2, 95% air and 100% relative humidity for 24 h prior to addition of experimental drugs. After 24 h, two plates of each cell line are fixed in situ with TCA, to represent a measurement of the cell population for each cell line at the time of drug addition (Tz). Experimental drugs are solubilized in dimethyl sulfoxide at 400-fold the desired final maximum test concentration and stored frozen prior to use. At the time of drug addition, an aliquot of frozen concentrate is thawed and diluted to twice the desired final maximum test concentration with complete medium containing 50 μg/ml gentamicin. Additional four, 10-fold or one-half log serial dilutions are made to provide a total of five drug concentrations plus control. Aliquots of 100 μl of these different drug dilutions are added to the appropriate microtiter wells already containing 100 μl of medium, resulting in the required final drug concentrations. Following drug addition, the plates are incubated for an additional 48 h at 37° C., 5% CO2, 95% air, and 100% relative humidity. For adherent cells, the assay is terminated by the addition of cold TCA. Cells are fixed in situ by the gentle addition of 50 μl of cold 50% (w/v) TCA (final concentration, 10% TCA) and incubated for 60 minutes at 4° C. The supernatant is discarded, and the plates are washed five times with tap water and air dried. Sulforhodamine B (SRB) solution (100 μl) at 0.4% (w/v) in 1% acetic acid is added to each well, and plates are incubated for 10 minutes at room temperature. After staining, unbound dye is removed by washing five times with 1% acetic acid and the plates are air dried. Bound stain is subsequently solubilized with 10 mM trizma base, and the absorbance is read on an automated plate reader at a wavelength of 515 nm. For suspension cells, the methodology is the same except that the assay is terminated by fixing settled cells at the bottom of the wells by gently adding 50 μl of 80% TCA (final concentration, 16% TCA). Using the seven absorbance measurements [time zero, (Tz), control growth, (C), and test growth in the presence of drug at the five concentration levels (Ti)], the percentage growth is calculated at each of the drug concentrations levels. […]

PC-3 = assay: NCI-60 cell line screen (SRB), PC-3; details: Prostate Cancer; PC-3; 48 h drug incubation; read-out: GI50
Experimental: as §1

DU145 = assay: NCI-60 cell line screen (SRB), DU145; details: Prostate Cancer; DU145; 48 h drug incubation; read-out: GI50
Experimental: as §1

UO-31 = assay: NCI-60 cell line screen (SRB), UO-31; details: Renal Cancer; UO-31; 48 h drug incubation; read-out: GI50
Experimental: as §1

MCF-7 = assay: NCI-60 cell line screen (SRB), MCF-7; details: Breast Cancer; MCF-7; 48 h drug incubation; read-out: GI50
Experimental: as §1

Colon Cancer cell lines = assay: NCI-60 cell line screen, Colon Cancer panel average; details: average over Colon Cancer panel; read-out: GI50 Average
Experimental: as §1

NCI-H460 = assay: NCI-60 cell line screen (SRB), NCI-H460; details: Non-Small Cell Lung Cancer; NCI-H460; 48 h drug incubation; read-out: GI50
Experimental: as §1

SW-620 = assay: NCI-60 cell line screen (SRB), SW-620; details: Colon Cancer; SW-620; 48 h drug incubation; read-out: GI50
Experimental: as §1

KM12 = assay: NCI-60 cell line screen (SRB), KM12; details: Colon Cancer; KM12; 48 h drug incubation; read-out: GI50
Experimental: as §1

HOP-62 = assay: NCI-60 cell line screen (SRB), HOP-62; details: Non-Small Cell Lung Cancer; HOP-62; 48 h drug incubation; read-out: GI50
Experimental: as §1

HL-60(TB) = assay: NCI-60 cell line screen (SRB), HL-60(TB); details: Leukemia; HL-60(TB); 48 h drug incubation; read-out: GI50
Experimental: as §1

COLO 205 = assay: NCI-60 cell line screen (SRB), COLO 205; details: Colon Cancer; COLO 205; 48 h drug incubation; read-out: GI50
Experimental: as §1

NCI-H322M = assay: NCI-60 cell line screen (SRB), NCI-H322M; details: Non-Small Cell Lung Cancer, 48 h drug incubation, read-out: GI50
Experimental: as §1

NCI-H226 = assay: NCI-60 cell line screen (SRB), NCI-H226; details: Non-Small Cell Lung Cancer; NCI-H226; 48 h drug incubation; read-out: GI50
Experimental: as §1

RPMI-8226 = assay: NCI-60 cell line screen (SRB), RPMI-8226; details: Leukemia; RPMI-8226; 48 h drug incubation; read-out: GI50
Experimental: as §1

OVCAR-8 = assay: NCI-60 cell line screen (SRB), OVCAR-8; details: Ovarian Cancer; OVCAR-8; 48 h drug incubation; read-out: GI50
Experimental: as §1

[1] = test system: Prostate Cancer cell lines; assay: NCI-60 cell line screen, Prostate Cancer panel average; details: average over Prostate Cancer panel; read-out: GI50 Average
Experimental: as §1

A-498 = assay: NCI-60 cell line screen (SRB), A-498; details: Renal Cancer; A-498; 48 h drug incubation; read-out: GI50
Experimental: as §1

SN12C = assay: NCI-60 cell line screen (SRB), SN12C; details: Renal Cancer, 48 h drug incubation, read-out: GI50
Experimental: as §1

SK-MEL-2 = assay: NCI-60 cell line screen (SRB), SK-MEL-2; details: Melanoma; SK-MEL-2; 48 h drug incubation; read-out: GI50
Experimental: as §1

HT29 = assay: NCI-60 cell line screen (SRB), HT29; details: Colon Cancer; HT29; 48 h drug incubation; read-out: GI50
Experimental: as §1

MALME-3M = assay: NCI-60 cell line screen (SRB), MALME-3M; details: Melanoma; MALME-3M; 48 h drug incubation; read-out: GI50
Experimental: as §1

OVCAR-3 = assay: NCI-60 cell line screen (SRB), OVCAR-3; details: Ovarian Cancer; OVCAR-3; 48 h drug incubation; read-out: GI50
Experimental: as §1

SK-MEL-28 = assay: NCI-60 cell line screen (SRB), SK-MEL-28; details: Melanoma; SK-MEL-28; 48 h drug incubation; read-out: GI50
Experimental: as §1

CCOP(=O)(OCC)C(NC(=O)[C@H](Cc1ccc(-c2ccccc2)cc1)NC(=O)c1ccc(OCCC[Si](C)(C)C)cc1)P(=O)(OCC)OCC [GH1505, N^α-{4-[3-(trimethylsilyl)propoxy]-benzoyl}-N-[bis(dietoxyphosphoryl)methyl]-(4-phenyl-L-phenylalaninamide)]
GI50 (M14): 2100 nM | GI50 (PC-3): 2100 nM | GI50 (DU145): 1930 nM | GI50 (UO-31): 2770 nM | GI50 (MCF-7): 1880 nM | GI50 (Colon Cancer cell lines): 2120 nM | GI50 (NCI-H460): 1970 nM | GI50 (SW-620): 2190 nM | GI50 (KM12): 2610 nM | GI50 (HOP-62): 2000 nM | GI50 (HL-60(TB)): 2940 nM | GI50 (COLO 205): 1840 nM | GI50 (NCI-H322M): 5.11 µM | GI50 (NCI-H226): 1840 nM | GI50 (RPMI-8226): 1970 nM | GI50 (OVCAR-8): 2960 nM | GI50 [1]: 2020 nM | GI50 (A-498): 3.64 µM | GI50 (SN12C): 1710 nM | GI50 (SK-MEL-2): 2110 nM | GI50 (HT29): 2020 nM | GI50 (MALME-3M): 1930 nM | GI50 (OVCAR-3): 1870 nM | GI50 (SK-MEL-28): 1760 nM
